According to US20240000860A1, “METHODS FOR TREATING AUTISM SPECTRUM DISORDER” (priority 2020, published 2024):
Marks after values point to notes of the source that are not given here.

Experiments:
Type in all cases: in vivo
[1] = tested on: gene pathways in mouse brain (prefrontal cortex); assay: RNA sequencing of prefrontal cortex after supplemented metabolites: differentially expressed gene pathways; settings: two weeks supplementation
Protocol: Transcriptomics data (RNA sequencing) was collected from the prefrontal cortex of 12-week old mice after consuming a low, medium, or high dosage of supplemented metabolites for two weeks. RNA sequencing used brain tissue to evaluate possible correlation between changes in relative changes in gene transcription with changes in behavior. The number of differentially expressed gene pathways at significance level of 0.05, 0.1, and 0.15 was determined (Table 1).

[2] = tested on: mice; assay: Three-chamber sociability test; settings: for Sociability: behavioral assay summary, Yes/No
Protocol: (§1) Mice were fed 80% of their total food as non-supplemented food (chow) for 4 days. For the next two weeks, mice were fed 80% of their total food as non-supplemented food and the remaining 20% was supplemented with selected metabolites(s). Mice were fed on food supplemented with various metabolites including 5-dodecacenoate (5D), glycodeoxycholate (GDC), ursodeoxycholate (UDC), or a control food lacking a supplement (CTL). Mouse behavior was tested using an elevated plus maze (FIG. 13), a three-chamber sociability test, and tracking wheel usage. During testing, mice were fed 80% of their total food as non-supplemented food and the remaining 20% was supplemented with the selected metabolites(s).
Additionally, the effect of supplementation with the metabolites on sociability was measured with a three-chamber sociability test (FIG. 21). This chamber tested for responses to social novelty.

[3] = tested on: mice; assay: Elevated plus maze (anxiogenic behavior); settings: for EPM closed arms / EPM open arms: behavioral assay summary, Yes/No; for active time in the closed arms of the maze / time spent in closed arms of elevated plus maze: vs control mice
Protocol: as §1
Anxiogenic behavior was tested by tracking time spent in closed arms of an elevated plus maze. Control mice were fed food lacking a supplement.

[4] = tested on: mice; assay: Habituation over three days (distance traveled, time in center, ambulatory time); settings: for Habituation exploration / Habituation time in center: behavioral assay summary, Yes/No; for habituation: total distance traveled and exploratory activity: over three days
Protocol: as §1
Habituation over was tested with the […] (FIG. 16). […] Significance was tested with an ANOVA test.
Habituation was measured by tracking the amount of time spent in the center of the chamber (FIG. 18).
Active time was also measured as total ambulatory time and center ambulatory time.

[5] = tested on: mice; assay: Mouse wheel distance traveled; settings: for night-time activity: after administering metabolites
Protocol: as §1
Lastly, mice fed with food supplemented with various metabolites were given a mouse wheel and distance traveled was tracked.

[6] = tested on: gene pathways in frontal cortex of CNTNAP2 mice; assay: RNA-sequencing and gene set enrichment analysis of frontal cortex; settings: for normalized enrichment score: 5D vs normal chow
Protocol: In this example, to further investigate 5D's effect on neuronal function, RNA-sequencing was performed on the frontal cortex region of CNTNAP2 mice supplemented with 5D after 3 weeks.
Bar size depicts enrichment score normalized by gene set size, and color depicts fdr corrected p-value as determined by gene set enrichment analysis. […] (CNTNAP-NormC: n=5, CNTNAP-5D: n=9)

[7] = tested on: CNTNAP2 mice; assay: Gut microbiota taxonomic composition in colons with 5D supplementation
Protocol: Genera under the family Lachnospiraceae and Ruminococcaceae were consistently seen increased in CNTNAP2 mice and decreased with 5D supplementation.
P-values were determined using permanova and beta-dispersion tests. FIGS. 29B-29N show results of differential abundance test of ASVs aggregated at the genus level. […] P-values were determined using Wilcoxon rank sum test, values were reported as fold change of median of C57BL/6 controls.

[8] = tested on: CNTNAP2 mice; assay: Lipidomic profiles and triglyceride levels in brain, plasma, liver and stool
Excerpt: Triglycerides were identified as influential in every tissue measured. Lipids were first aggregated into categories (e.g. triglycerides, phosphocholines), then PCA ordination was applied. […] P-values determined from permanova test between treatments are shown as annotations.
Intensities were normalized using CUDA calibration and were reported as log fold change of median of C57BL/6 wild type controls. P-values were derived from Wilcox rank sum test.

[9] = significance level 0.05, 12-week old mice
[10] = significance level 0.1, 12-week old mice
[11] = significance level 0.15, 12-week old mice
[12] = treatment average vs 5D Average
[13] = treatment average vs Control Average
[14] = frontal cortex of CNTNAP2 mice after 3 weeks

C[C@H](CCC(=O)O)[C@H]1CC[C@H]2[C@@H]3[C@@H](O)C[C@@H]4C[C@H](O)CC[C@]4(C)[C@H]3CC[C@]12C [UDC, ursodeoxycholate]
Differentially Expressed Gene Pathways in Mouse Brain [1, 9]: 0
Differentially Expressed Gene Pathways in Mouse Brain [1, 10]: 0
Differentially Expressed Gene Pathways in Mouse Brain [1, 11]: 104
Sociability [2]: No
EPM closed arms [3]: Yes
EPM open arms [3]: No
active time in the closed arms of the maze [3]: lower active time in the closed arms of the maze than control mice
time spent in closed arms of elevated plus maze [3]: spent less time in the closed arms of the maze
Habituation exploration [4]: No
Habituation time in center [4]: No
habituation: total distance traveled and exploratory activity [4]: did not decrease the total distance traveled on day three compared to day two
night-time activity [5]: night-time activity increased
Adjusted p value, comparison of average distance traveled [5, 12]: 0.00000000
Adjusted p value, comparison of average distance traveled [5, 13]: 0.00000000*
Adjusted p value, comparison of average distance traveled ([5]; treatment average vs GDC Average): 0.0000141

CC(=O)N[C@@H](CCC(=O)O)C(=O)O [N-acetyl-L-glutamate]
Differentially Expressed Gene Pathways in Mouse Brain [1, 9]: 82
Differentially Expressed Gene Pathways in Mouse Brain [1, 10]: 145
Differentially Expressed Gene Pathways in Mouse Brain [1, 11]: 177

C[C@H](CCC(=O)NCC(=O)O)[C@H]1CC[C@H]2[C@@H]3CC[C@@H]4C[C@H](O)CC[C@]4(C)[C@H]3C[C@H](O)[C@]12C [GDC, glycodeoxycholate]
Differentially Expressed Gene Pathways in Mouse Brain [1, 9]: 153
Differentially Expressed Gene Pathways in Mouse Brain [1, 10]: 277
Differentially Expressed Gene Pathways in Mouse Brain [1, 11]: 291
Sociability [2]: No
EPM closed arms [3]: No
EPM open arms [3]: No
time spent in closed arms of elevated plus maze [3]: did not spend significantly more time in closed arms than control mice
Habituation exploration [4]: Yes
Habituation time in center [4]: No
habituation: total distance traveled and exploratory activity [4]: lower total distance traveled and exploratory activity over three days
night-time activity [5]: night-time activity increased
Adjusted p value, comparison of average distance traveled [5, 12]: 0.2762
Adjusted p value, comparison of average distance traveled [5, 13]: 0.0000114*

CCCCCCC=CCCCC(=O)O [5D, 5-dodecenoate]
normalized enrichment score ([6]; R-MMU-112314 Neurotransmitter receptors and postsynaptic signal transmission): −2.033
normalized enrichment score ([6]; R-MMU-112315 Transmission across Chemical Synapses): −1.846
normalized enrichment score ([6]; R-MMU-112316 Neuronal System): −2.025
normalized enrichment score ([6]; R-MMU-114604 GPVI-mediated activation cascade): 1.832
normalized enrichment score ([6]; R-MMU-181431 Acetylcholine binding and downstream events): −2.154
normalized enrichment score ([6]; R-MMU-195721 Signaling by WNT): −1.416
normalized enrichment score ([6]; R-MMU-198933 Immunoregulatory interactions between a Lymphoid and a non-Lymphoid cell): 1.706
normalized enrichment score ([6]; R-MMU-202733 Cell surface interactions at the vascular wall): 1.736
normalized enrichment score ([6]; R-MMU-216083 Integrin cell surface interactions): 1.99
normalized enrichment score ([6]; R-MMU-397014 Muscle contraction): −1.646
normalized enrichment score ([6]; R-MMU-418360 Platelet calcium homeostasis): −2.258
normalized enrichment score ([6]; R-MMU-419037 NCAM1 interactions): 1.823
normalized enrichment score ([6]; R-MMU-622323 Presynaptic nicotinic acetylcholine receptors): −2.107
normalized enrichment score ([6]; R-MMU-622327 Postsynaptic nicotinic acetylcholine receptors): −2.154
normalized enrichment score ([6]; R-MMU-629594 Highly calcium permeable postsynaptic nicotinic acetylcholine receptors): −2.095
normalized enrichment score ([6]; R-MMU-983168 Antigen processing: Ubiquitination and Proteasome degradation): −1.55
normalized enrichment score ([6]; R-MMU-1296071 Potassium Channels): −1.854
normalized enrichment score ([6]; R-MMU-1296072 Voltage gated Potassium channels): −1.912
normalized enrichment score ([6]; R-MMU-1442490 Collagen degradation): 2.005
normalized enrichment score ([6]; R-MMU-1474228 Degradation of the extracellular matrix): 1.968
normalized enrichment score ([6]; R-MMU-1474244 Extracellular matrix organization): 1.79
normalized enrichment score ([6]; R-MMU-1474290 Collagen formation): 2.185
normalized enrichment score ([6]; R-MMU-1650814 Collagen biosynthesis and modifying enzymes): 2.145
normalized enrichment score ([6]; R-MMU-2022090 Assembly of collagen fibrils and other multimeric structures): 2.261
normalized enrichment score ([6]; R-MMU-2022857 Keratan sulfate degradation): 1.893
normalized enrichment score ([6]; R-MMU-3928664 Ephrin signaling): −2.03
normalized enrichment score ([6]; R-MMU-5576891 Cardiac conduction): −1.669
normalized enrichment score ([6]; R-MMU-5668599 RHO GTPases Activate NADPH Oxidases): 1.842
normalized enrichment score ([6]; R-MMU-5686938 Regulation of TLR by endogenous ligand): 1.963
normalized enrichment score ([6]; R-MMU-6794361 Neurexins and neuroligins): −1.973
normalized enrichment score ([6]; R-MMU-6794362 Protein-protein interactions at synapses): −2.181
normalized enrichment score ([6]; R-MMU-6798695 Neutrophil degranulation): 1.588
normalized enrichment score ([6]; R-MMU-6803157 Antimicrobial peptides): 1.959
normalized enrichment score ([6]; R-MMU-6811436 COPI-independent Golgi-to-ER retrograde traffic): −1.957
normalized enrichment score ([6]; R-MMU-8878159 Transcriptional regulation by RUNX3): −1.748
normalized enrichment score ([6]; R-MMU-8948216 Collagen chain trimerization): 2.098
normalized enrichment score ([6]; R-MMU-8951664 Neddylation): −1.571
expression of collagen, extracellular matrix, cell structure and interaction pathways [6, 14]: increased the expression of pathways such as collagen formation
expression of innate immunity pathways [6, 14]: increased expression of pathways that relate to innate immunity
expression of synapse-dependent pathways [6, 14]: decreased expression of synapse-dependent pathways
genes significantly modulated (p<0.05) [6, 14]: 1438
Differentially Expressed Gene Pathways in Mouse Brain [1, 9]: 0
Differentially Expressed Gene Pathways in Mouse Brain [1, 10]: 216
Differentially Expressed Gene Pathways in Mouse Brain [1, 11]: 235
Sociability [2]: Yes
time spent with a new mouse, compared among treatments ([2]; mouse, in vivo): spent the most time with a new mouse
time spent with novel mouse ('new') vs known mouse ('old') ([2]; response to social novelty): spent more time with a novel mouse
EPM closed arms [3]: Yes
EPM open arms [3]: No
active time in the closed arms of the maze [3]: lower active time in the closed arms of the maze than control mice
time spent in closed arms of elevated plus maze [3]: spent less time in the closed arms of the maze
Romboutsia ilealis levels ([7]; CNTNAP2 mice): found at very high levels in some CNTNAP2 mice
ten genera of bacteria increased in CNTNAP2 mice compared to C57BL/6 ([7]; Wilcoxon rank sum test): significantly decreased
taxonomic composition of gut microbiota ([7]; oral supplementation, CNTNAP2 mice vs C57BL/6 wild types): shifts the taxonomic composition of CNTNAP2 mice
lipid profiles in brain and stool [8]: tended to shift brain and stool profiles, though this shift was not statistically significant
lipid profiles in plasma and liver [8]: significantly shift CNTNAP2 mouse lipid profiles in plasma and liver
triglyceride levels in brain, liver, plasma and stool ([8]; dietary supplementation): decreased the levels significantly in each of the tissues
Habituation exploration [4]: Yes
Habituation time in center [4]: Yes
habituation: total distance traveled and exploratory activity [4]: lower total distance traveled and exploratory activity over three days
center ambulatory time ([4]; over time): increase in center ambulatory time over time
time spent in the center of the chamber ([4]; over time): increase in time spent in the center of the chamber over time
night-time activity [5]: night-time activity increased
Adjusted p value, comparison of average distance traveled [5, 13]: 0.01466*

N[C@@H](CCC(=O)O)C(=O)O [Glutamate, glutamate]
Differentially Expressed Gene Pathways in Mouse Brain [1, 9]: 0
Differentially Expressed Gene Pathways in Mouse Brain [1, 10]: 0
Differentially Expressed Gene Pathways in Mouse Brain [1, 11]: 107
